These results are taken from patent US20260265771A1, “METHODS OF INCREASING THE REGENERATION EFFICIENCY IN PLANTS” (Institute of Genetics and Developmental Biology Chinese …, priority 2022, published 2026).

Where “and” joins values, the source holds several entries; their conditions need not be identical. Identical values can stand only once. Entries after “also recorded” stand apart in the source; their conditions may differ.

Test [1] has as its system hypocotyl explants of tomato cultivar Ailsa Craig. Put plainly: Callus formation of tomato hypocotyl explants on callus-inducing medium (CIM). It counts as cell-based. As for the experimental part: FIG. 6—(a) Hypocotyl explants of WT (Ailsa Craig, AC) and prr mutants were cultured on callus-inducing medium (CIM) in the absence of SIPEP (REF1) and CIM REF1 at a concentration of 1 nM for 14 days, photographs of the callus formation of these plants are shown. (b) The distribution of projected callus area of WT and prr mutants grown in the absence of REF1 in a callus inducing medium (control) and in a callus inducing medium in the presence of 1 nM SIPEP (REF1). The projected area of callus was quantified by Image J. Individual values (black dots) are shown and error bars represent SD from three independent experiments.
FIG. 9—Hypocotyl explants of WT (Ailsa Craig, AC) were cultured on callus-inducing medium (CIM) containing indicated concentrations of REF1, and callus phenotype was scored 14 days after incubation. […] The projected area of callus was quantified by Image J. Individual values (black dots) are shown and error bars represent SD from three independent experiments. ***P<0.001, **P<0.01, *P<0.05 (Student's t-test).
Relative callus area was determined by quantifying the area of each callus using ImageJ, the average of each group was calculated, for each group this was then divided by the average of the control group.
To further test whether SIPEP (REF1) is a wound signal promoting regeneration in tomato, wild type, prr-1 and prr-2 Aisla Craig hypocotyl explants were cultured on a callus inducing medium in the presence and absence of SIPEP (REF1) at 1 nM. The callus phenotype was then scored at 14 days after incubation (FIG. 6), here it can be seen that presence of 1 nM REF1 in the medium increased callus area in all explants tested, crucially, the relative callus area of prr-1 and prr-2 was restored when REF1 was present in the medium.
To test the effect of the dose of SIPEP (REF1) on callus formation hypocotyl explants of WT (Ailsa Craig) were cultured on callus-inducing medium (CIM) containing indicated concentrations of REF1 in FIG. 9 (mock with 0, 10^−4, 10^−3, […], 1, and 10 nM) and callus phenotype was scored 14 days after incubation. Box plots represent the distribution of projected callus area.
Callus formation was measured in RER knock out mutants (rer-1 and rer-3) compared to wild type (WT) tomato plants (Ailsa Craig) in the presence and absence of SIPEP (REF1). […] Here it can be seen that callus area was highest in WT plant grown with REF1, as REF1 induces callus formation, as shown in Examples 2 and 4.

Another test relates to SIWIND1 promoter. The test is described as follows: SIWIND1 promoter activity (pSIWIND1::GUS) in cut hypocotyls. It counts as cell-based, tomato. The following applies: cut hypocotyls on MS medium with or without 1 nM REF1. How it is done:
(a) Induction of the SIWIND1 promoter activity at the wound sites of hypocotyl explants. Hypocotyl explants of 7-d-old pSIWIND1::GUS plants were cultured on MS medium with or without 1 nM REF1. Representative images of hypocotyls at indicated time after wounding are shown. Bars, 1 mm. […] Hypocotyls of 7-d-old seedlings of the indicated genotypes were cut and hypocotyl explants were cultured on MS medium for 9 h before gene expression analysis. Hypocotyls of undamaged seedlings were harvested as control. Data are mean±SD, n=3 biological repeats. (c and d) REF1-induced callus formation in WT and sIwind1 mutants. Hypocotyl explants were cultured on CIM with or without 1 nM REF1 for 14 d before callus phenotype was scored. Shown are representative callus images (c) and quantification of the callus projection area (d). […] Hypocotyl explants were cultured on CIM for 14 d and then transferred to SIM with or without 1 nM REF1 for 21 d before shoot organogenesis phenotype was scored. […] Hypocotyl explants were cultured on CIM for 14 d before callus phenotype was scored. Shown are representative callus images (g) and quantification of the callus projection area (h). […] Hypocotyl explants were cultured on CIM for 14 d and then transferred to SIM for 21 d before shoot organogenesis phenotype was scored. […] In (h) and (j), statistical significance was determined by a student's t test (***p<0.001, **p<0.01, *p<0.05). […]

The next test has as its system LA1777 tomatoes. The test is described as follows: Shoot regeneration of recalcitrant wild tomato LA1777. It counts as cell-based, S. habrochaites. Conditions: LA1777, 1 nM REF1 vs REF1 absent. As for the experimental part:
(a) photos of LA1777 grown in the presence and absence of 1 nM REF1. (b) relative regeneration frequency of LA1777 grown in the presence and absence of 1 nM REF1. (c) number of hypocotyl of LA1777 grown in the presence and absence of 1 nM REF1.
(a) photos of control LA1777 tomatoes, PRR expressing LA1777 tomatoes, RER expressing LA1777 tomatoes, and PRR and RER expressing LA1777 tomatoes exposed to 1 nM REF1 for 25 days, or absence of REF1 (mock). (b) relative regeneration frequency of control LA1777 tomatoes, PRR expressing LA1777 tomatoes, RER expressing LA1777 tomatoes, and PRR and RER expressing LA1777 tomatoes exposed to 1 nM REF1 for 25 days, or absence of REF1 (mock).
The effect of exogenously applied REF1 in a shoot inducing growth medium was investigated in LA1777 tomatoes by growing LA1777 tomatoes in the presence and absence of 1 nM REF1. […] Likewise, FIG. 20B shoes that relative regeneration frequency of LA1777 was 6-fold higher when grown in the presence of REF1 compared to when REF1 was absent, similarly, the number of hypocotyl was also higher in the presence of REF1.

As to “ATDRRGRPPSRPKVGSGPPPQNN (listed as Solanum lycopersicum) [REF1, 23 amino acid tomato peptide cleaved from precursor PROSIPEP]”, the “optimum concentration to maximize callus formation” value in test [1] (WT Ailsa Craig explants, CIM, 14 days) was determined as 1 nM. The relative callus area in test [1] (WT Ailsa Craig, 10 nM REF1 compared with 1 nM) is listed as “sharp decrease”. Moreover, the relative callus area in test [1] (WT Ailsa Craig, CIM with 1 nM REF1 vs without, 14 days) is “induced larger callus areas; also recorded: highest”. Moreover, the “relative callus area, dose dependence” value in test [1] (WT Ailsa Craig, CIM, mock to 10 nM REF1, 14 days) is given as “increased in a dose dependent manner”. The relative callus area in test [1] (prr-1 and prr-2 mutants, CIM with 1 nM REF1, 14 days) is given as “restored”. Besides, the “REF1 induced callus formation (relative callus area)” value in test [1] (rer-1 and rer-3 knockouts, presence vs absence of REF1) was “failing to lead to any increase; also recorded: defective”. In addition, the “SIWIND1 promoter activity / expression” value with SIWIND1 promoter is “enhanced; also recorded: promoting SIWIND1 expression”. Moreover, in the test with LA1777 tomatoes, the number of hypocotyl result was “higher”; the “relative regeneration frequency, increase” value is ~ 6 fold and 6 fold; the shoot regeneration result is given as “greater shoot regeneration; also recorded: promotes shoot regeneration”.
